{"source": "paper PMC6021502", "about": "“Cannabigerol Action at Cannabinoid CB1 and CB2 Receptors and at CB1–CB2 Heteroreceptor Complexes” (Frontiers in Pharmacology, 2018)", "key": {"CB1R [1]": {"tested_on": "T1, CB1R", "T1 construct": "expressed in transfected cells; host or cells: HEK-293T, transient transfection (PEI)", "assay": "β-arrestin 2 recruitment (BRET) in HEK-293T cells", "assay_type": "cell-based, human", "protocol": "(§1) HEK-293T cells were grown in DMEM medium (Gibco, Paisley, Scotland, United Kingdom) supplemented with 2 mM L-glutamine, 100 U/mL penicillin/streptomycin, MEM Non-Essential Amino Acids Solution (1/100) and 5% (v/v) heat inactivated Foetal Bovine Serum (FBS) (Invitrogen, Paisley, Scotland, United Kingdom). […] Cells were transiently transfected with the PEI (Polyethylenimine, Sigma, St. Louis, MO, United States) method as previously described ([Medrano et al., 2017]; [Navarro et al., 2018b]) and used for functional assays 48 h later (unless otherwise stated).\n(§2) Arrestin recruitment was determined as previously described ([Medrano et al., 2017]; [Navarro et al., 2018b]). Briefly, BRET experiments were performed in HEK-293T cells 48 h after transfection with the cDNA corresponding to the CB2R-YFP or CB1R-YFP and 1 μg cDNA corresponding to β-arrestin 2-Rluc. Cells (20 μg protein) were distributed in 96-well microplates (Corning 3600, white plates with white bottom) and were incubated with CBG for 15 min and stimulated with the agonist for 10 min prior the addition of 5 μM coelenterazine H (Molecular Probes, Eugene, OR, United States). After 1 min of adding coelenterazine H, BRET between β-arrestin 2-Rluc and receptor-YFP was determined and quantified. The readings were collected using a Mithras LB 940 (Berthold Technologies, Bad Wildbad, Germany) that allows the integration of the signals detected in the short-wavelength filter at 485 nm and the long-wavelength filter at 530 nm. To quantify protein-RLuc expression luminescence readings were also performed 10 min of adding 5 μM coelenterazine H."}, "CB2R [2]": {"tested_on": "T2, CB2R", "T2 construct": "expressed in transfected cells; host or cells: HEK-293T, transient transfection (PEI)", "assay": "β-arrestin 2 recruitment (BRET) in HEK-293T cells", "assay_type": "cell-based, human", "protocol": "as §1, §2"}, "[3]": {"tested_on": "T3, CB1R and CB2R (CB1–CB2 heteroreceptor complexes)", "T3 construct": "expressed in transfected cells; host or cells: HEK-293T, transient co-transfection (PEI)", "assay": "β-arrestin 2 recruitment (BRET) in HEK-293T cells co-expressing both receptors", "assay_type": "cell-based, human", "protocol": "as §1\nas §2, with “Cells (20 μg protein) were distributed in 96-well microplates (Corning 3600, white plates with white bottom) and were incubated with CBG for 15 min and stimulated with the agonist for 10 min prior the addition of 5 μM coelenterazine H (Molecular Probes, Eugene, OR, United States).” left out"}, "PPARγ": {"target": "PPARγ", "parameters": "method as in Granja et al., 2012; Nadal et al., 2017", "details": "ref Granja et al., 2012; Nadal et al., 2017; cited from earlier work"}, "macrophages": {"tested_on": "macrophages", "parameters": "method as in Giacoppo et al., 2017", "details": "in vitro; blocked by AM630, not by SR141716A; ref Giacoppo et al., 2017; cited from earlier work"}, "TRPV2": {"tested_on": "TRPV2", "parameters": "method as in De Petrocellis et al., 2011", "details": "ref De Petrocellis et al., 2011; read-out: EC50, agonist of TRPV2; cited from earlier work"}, "SNAP-CB2R": {"target": "T4, SNAP-CB2R (Homo sapiens, UniProt P34972)", "T4 construct": "host or cells: HEK-293T, transient transfection (PEI)", "T4 sequence (P34972 whole entry)": "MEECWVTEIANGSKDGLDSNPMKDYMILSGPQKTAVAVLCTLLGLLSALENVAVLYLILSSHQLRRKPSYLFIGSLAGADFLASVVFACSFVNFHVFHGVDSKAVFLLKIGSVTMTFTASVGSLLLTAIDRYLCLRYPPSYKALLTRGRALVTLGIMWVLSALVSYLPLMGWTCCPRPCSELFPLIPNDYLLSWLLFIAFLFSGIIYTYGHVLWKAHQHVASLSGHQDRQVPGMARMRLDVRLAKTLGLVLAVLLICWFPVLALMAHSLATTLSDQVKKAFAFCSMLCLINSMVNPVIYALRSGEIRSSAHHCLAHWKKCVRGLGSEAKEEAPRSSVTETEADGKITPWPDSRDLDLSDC", "assay": "Homogeneous HTRF competition binding in living HEK-293T cells (fluorophore-conjugated CM-157)", "details": "living HEK-293T cells expressing SNAP-CB2R, 20 nM fluorescent ligand"}, "TRPM8 channels": {"tested_on": "TRPM8 channels", "parameters": "method as in De Petrocellis et al., 2011", "details": "ref De Petrocellis et al., 2011; read-out: IC50, antagonist of TRPM8 channels; cited from earlier work"}, "CB1R [4]": {"tested_on": "T1, CB1R", "assay": "cAMP determination in HEK-293T cells", "assay_type": "cell-based, human", "protocol": "as §1\n(§3) Signaling experiments have been performed as previously described ([Navarro et al., 2010], [2016], [2018b]; [Hinz et al., 2018]). Two hours before initiating the experiment, HEK-293T cell-culture medium was replaced by serum-starved DMEM medium. Then, cells were detached, resuspended in growing medium containing 50 μM zardaverine and placed in 384-well microplates (2,500 cells/well). Cells were pretreated (15 min) with CBG -or vehicle- and stimulated with agonists (15 min) before adding 0.5 μM forskolin or vehicle. Readings were performed after 15 min incubation at 25°C. HTRF energy transfer measures were performed using the Lance Ultra cAMP kit (PerkinElmer, Waltham, MA, United States). Fluorescence at 665 nm was analyzed in a PHERAstar Flagship microplate reader equipped with an HTRF optical module (BMG Lab Technologies, Offenburg, Germany)."}, "CB2R [5]": {"tested_on": "T2, CB2R", "assay": "cAMP determination in HEK-293T cells", "assay_type": "cell-based, human", "protocol": "as §1, §3"}, "[6]": {"details": "CBG alone, 1 nM to 10 μM, CB1R-expressing cells"}, "[7]": {"details": "CBG alone, 1 nM to 10 μM, CB2R-expressing cells"}}, "data": [{"smiles": "CCCCCc1cc(O)c(C/C=C(\\C)CCC=C(C)C)c(O)c1", "note": "[CBG, cannabigerol]", "values": [{"measurement": "Effect on agonist-induced β-arrestin recruitment", "setting": "CB1R [1]; 100 nM or 1 μM CBG, 100 nM AEA or ACEA, CB1R", "value": "unable to modify"}, {"measurement": "β-arrestin recruitment", "setting": "CB1R [1]; [6]", "value": "small increase"}, {"measurement": "Effect on β-arrestin recruitment induced by agonists", "setting": "CB2R [2]; 100 nM or 1 μM CBG, 100 nM AEA or JWH133, CB2R", "value": "did not affect"}, {"measurement": "β-arrestin recruitment", "setting": "CB2R [2]; [7]", "value": "noteworthy"}, {"measurement": "Effect on agonist actions on β-arrestin recruitment", "setting": "[3]; 100 nM CBG pretreatment, cells co-expressing CB1R and CB2R", "value": "negligible"}, {"measurement": "β-arrestin recruitment", "setting": "[3]; CBG alone, dose-effect, cells expressing CB1R and CB2R", "value": "negative cross-talk was still evident"}, {"measurement": "Ki", "setting": "PPARγ", "value": 11700, "unit": "nM"}, {"measurement": "Protection of macrophages against oxidative stress", "setting": "macrophages", "value": "protection of macrophages against oxidative stress"}, {"measurement": "EC50", "setting": "TRPV2", "value": 1700, "unit": "nM"}, {"measurement": "Ki", "setting": "SNAP-CB2R", "value": 152, "unit": "nM"}, {"measurement": "IC50", "setting": "TRPM8 channels", "value": 160, "unit": "nM"}, {"measurement": "Effect on AEA and ACEA induced effects on forskolin-induced cAMP", "setting": "CB1R [4]; 100 nM or 1 μM CBG pretreatment, 100 nM AEA or ACEA, CB1R", "value": "significant decrease"}, {"measurement": "Effect on forskolin induced cAMP levels", "setting": "CB1R [4]; [6]", "value": "small decrease"}, {"measurement": "Effect on AEA and JWH133 effects on forskolin-induced cAMP levels", "setting": "CB2R [5]; 100 nM or 1 μM CBG pretreatment, 100 nM AEA or JWH133, CB2R", "value": "reduced the effects of AEA and JWH133"}, {"measurement": "Effect on forskolin-induced cAMP levels", "setting": "CB2R [5]; [7]", "value": "small and similar to that exerted in CB1R-expressing cells"}]}]}
